Experimental data published in publication PMC5158083 (PLoS Pathogens, 2016).
Values joined by “and” are separate entries in the source; they are usually repeats but may differ in a detail not shown here. Equal entries are not always repeated. Non-standard residues stand in square brackets, D forms with d. Residues, ends and D or L forms follow the SMILES beside them. *: point of attachment. Sta = CC(C)C[C@H](N)[C@@H](O)CC(=O)O; Isovaleryl = CC(C)CC(=O)*

Tests used:
[1] = test system: peptidase activity in DMEM conditioned media; experiment: Class-specific peptidase inhibitors on IQ substrate cleavage by DMEM conditioned media; assay type: biochemical, Cryptococcus neoformans; settings: 1 mM 1-10-phenanthroline
Protocol: (§1) Although peptidase activity was evident under both culture conditions, differential substrate cleavage reflected differences in specificity. […] Adjustment of YNB supernatants from pH 5.0 to 7.4 (the pH of DMEM media) yielded only very low levels of any peptidase activity, while lowering the pH of DMEM supernatants from 7.4 to pH 5.0 produced a peptidase activity pattern similar to YNB media (S1 Fig).
(§2) Assays were conducted at room temperature on a Biotek Synergy H4 plate reader in a 50 μl volume using 96-well round bottom, polystyrene plates (Corning) with λex 328 nm λem 393 nm unless otherwise stated. Substrates were each 7 or 8 amino acids with 7-methoxycoumarin-4-acetic acid or 7-methoxycoumarin-4-yl-acetyl-L-lysine on the amino terminus, and at the carboxyl terminus 4-dinitrophenyl-L-lysine or 4-dinitrophenyl bound directly to the carboxyl terminus as indicated (For sequences see S1 Table). Substrates were assayed at a 10 μM final concentration from DMSO stocks. […]
(§3) Supplementary file ppat.1006051.s001.pdf: S1 Fig Fluorogenic assays indicate the endopeptidase class present in conditioned media and the optimal pH for detection of activity. […] The activity scale is differs for this experiment because this assay was conducted on a SpectraMax Gemini plate reader (Molecular Devices) although conditions were otherwise equivalent. […]

[2] = molecular target: T1, May1 (Cryptococcus neoformans, UniProt J9VS02); experiment: May1 inhibition, fluorogenic IQ-2 assay (screen and IC50); assay type: biochemical; settings: for IC50: 14.6 nM May1, 10 μM IQ-2, 100 mM MES 100 mM NaCl pH 4.5, 10 min preincubation, read-out: IC50 against May1
T1 construct: endogenous in cells; host or cells: wild-type C. neoformans H99, 32-hour YNB culture supernatant, enriched on HiTrap DEAE
T1 sequence (J9VS02 99-455 limits assumed): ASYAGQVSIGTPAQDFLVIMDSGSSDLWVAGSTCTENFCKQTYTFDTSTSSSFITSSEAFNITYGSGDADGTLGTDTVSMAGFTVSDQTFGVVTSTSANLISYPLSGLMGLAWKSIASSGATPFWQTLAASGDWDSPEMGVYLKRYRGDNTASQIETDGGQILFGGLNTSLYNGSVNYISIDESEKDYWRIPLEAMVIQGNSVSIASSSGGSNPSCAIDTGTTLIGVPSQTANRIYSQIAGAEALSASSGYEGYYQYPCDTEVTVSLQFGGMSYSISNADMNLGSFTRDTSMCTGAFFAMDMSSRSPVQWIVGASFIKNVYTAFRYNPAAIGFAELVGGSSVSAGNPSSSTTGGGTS
Protocol: Assays were conducted at room temperature on a Biotek Synergy H4 plate reader in a 50 μl volume using 96-well round bottom, polystyrene plates (Corning) with λex 328 nm λem 393 nm unless otherwise stated. Substrates were each 7 or 8 amino acids with 7-methoxycoumarin-4-acetic acid or 7-methoxycoumarin-4-yl-acetyl-L-lysine on the amino terminus, and at the carboxyl terminus 4-dinitrophenyl-L-lysine or 4-dinitrophenyl bound directly to the carboxyl terminus as indicated (For sequences see S1 Table). Substrates were assayed at a 10 μM final concentration from DMSO stocks. Biotek Gen5 software was used to calculate initial velocities in relative fluorescent units per second (RFU/sec) from 20 points over the linear portion of each assay. To assay activity, YNB conditioned media was adjusted to pH 4.5 using 100 mM MES, 100 mM NaCl buffer, […] at a final concentration of 26 mM MES, 26 mM NaCl, unless otherwise stated. Conditioned DMEM media was first buffer exchanged into PBS using a centrifugal filter unit with a 3 kDa cutoff (Millipore) before use. The peptidase inhibitors pepstatin A, 1-10-phenanthroline, AEBSF and E64 were dissolved in DMSO and were obtained from Sigma-Aldrich.
To concentrate secreted May1, YNB conditioned media was prepared as described above from 32-hour cultures of wild-type C. neoformans. The media was then diluted 2.7-fold into buffer A (50 mM Tris base pH 8), chosen to increase the pH in order to limit May1 autoproteolysis, dilute salts in the media (final conductivity ~6%), and confer a negative charge to the peptidase domain. The media was then loaded onto a 1 ml HiTrap DEAE fast flow column (GE Healthcare) using a fast protein liquid chromatography system with a flow rate of 1.5 ml/min. May1 was eluted using a 30 minute linear gradient of 0–100% buffer B (50 mM Tris base, 1 M NaCl, pH 8). Active fractions were determined by measuring activity using the substrate IQ-2. They were then combined and approximate May1 concentration determined by active-site titration.
Published methods were followed with minor modifications.
IC50 calculations were conducted using 14.6 nM May1 (100 mM MES 100 mM NaCl pH 4.5). Inhibitor stocks were dissolved in DMSO and incubated with May1 for 10 minutes before addition of substrate. GraphPad Prism 6 was used to calculate IC50 values from a plot of the log of inhibitor concentration versus normalized response.

[3] = test system: wild type C. neoformans; experiment: Culture density at saturation (OD600) of wild type C. neoformans in YNB treated with May1 inhibitors; assay type: cell-based, Cryptococcus neoformans; settings: 2 μM pepstatin A
Protocol: Fig 5 May1 activity is required for wild-type growth at acidic pH. (A) Culture density was recorded over time by measuring OD600 of cultures grown in YNB. The average density and S.D. of triplicates are shown. (B) Culture density of wild-type C. neoformans grown in YNB containing 2 μM pepstatin A was recorded. Mock indicates DMSO treatment. The average and S.D. of cultures grown in triplicate are shown. (C) Mutant characterization assays were conducted using YNB agar plates. Cultures were adjusted to an OD600 of 5 and then spotted in 10-fold serial dilutions on plates. (D) Full rescue of may1Δ saturation density in YNB was observed after buffering to pH 6.5. Average density and S.D. of triplicates are shown.
Next, we selected the two best in vitro hits to test their potency in culture relative to pepstatin A by measuring inhibition of May1 and restriction of culture growth using fluorogenic assays and OD600 respectively. […] None of the three compounds affected the culture density of a may1Δ strain, consistent with the idea that May1 is the compounds’ relevant target in this context (S11 Fig). […] However, additional medicinal chemistry efforts are necessary for in vivo applications. Therefore, subsequent studies investigating the role of May1 in virulence were carried out using deletion strains of this enzyme. […]

[4] = test system: may1Δ C. neoformans; experiment: Culture density of may1Δ strain in YNB treated with May1 inhibitors; assay type: cell-based, Cryptococcus neoformans; settings: YNB cultures
Protocol: Average values and S.D. of triplicate measurements are shown. (B) Density at saturation (after 48 hours of growth) is shown for YNB cultures of wild type or may1Δ C. neoformans treated with May1 inhibitors. Average values and S.D. of triplicates are shown.

[5] = test system: peptidase activity in YNB conditioned media; experiment: Class-specific peptidase inhibitors on IQ substrate cleavage by YNB conditioned media; assay type: biochemical, Cryptococcus neoformans; settings: 1 µM pepstatin
Protocol: as §1, §2, §3

SMILES | sensitivity of IQ substrate cleavage by DMEM conditioned media to inhibitor [1] | IC50 [2] | reduction of May1 activity ([2]; 1 μM inhibitor, substrate IQ-2) [%] | inhibition of proteolysis of IQ-2 by enriched May1 ([2]; May1 enriched from YNB conditioned media) | saturation density of wild type cultures in YNB [3] | effect on culture density of may1Δ cells [4] | sensitivity of IQ substrate cleavage by conditioned YNB media to inhibitor [5]
c1cnc2c(c1)ccc1cccnc12 [1-10-phenanthroline] | sensitive |  |  |  |  |  | 
Cc1nc(COc2ccc(C[C@H](NC(=O)O[C@H]3CO[C@H]4OCC[C@H]43)[C@H](O)CN(CC(C)C)S(=O)(=O)c3ccc4c(c3)OCO4)cc2)cs1 [Brecanavir] |  | 352 nM and ~352 nM | 80 |  |  |  | 
CC(C)CC(=O)N[C@H](C(=O)N[C@H](C(=O)N[C@@H](CC(C)C)[C@@H](O)CC(=O)N[C@@H](C)C(=O)N[C@@H](CC(C)C)[C@@H](O)CC(=O)O)C(C)C)C(C)C [Pepstatin A, pepstatin A] (Isovaleryl-VV[Sta]A[Sta]-OH) |  | 1.4 nM |  | fully inhibited | saturation density defect equivalent to that observed for the MAY1 deletion strains | no effect | sensitive
